According to patent publication US8962674B2 (Tokyo Institute of Technology, priority 2006, dated 2015):

With `COc1ccc(O)c(/C=C/C(=O)CC(=O)/C=C/c2ccc(OC)c(O)c2)c1` [CU089, (1E,6E)-1-(2-hydroxy-5-methoxyphenyl)-7-(3-hydroxy-4-methoxyphenyl)hepta-1,6-diene-3,5-dione] the melting point was 80 to 86 °C. `O=C(/C=C/c1ccc(O)cc1)CC(=O)/C=C/c1ccc(O)c([N+](=O)[O-])c1` [CU039, (1E,6E)-1-(4-hydroxy-3-nitrophenyl)-7-(4-hydroxyphenyl)hepta-1,6-diene-3,5-dione] gave a melting point of 240 to 245 °C. In the case of `COc1cc(/C=C/C(=O)CC(=O)/C=C/c2cc3ccccc3n2C)ccc1O` [CU147, (1E,6E)-1-(4-hydroxy-3-methoxyphenyl)-7-(1-methyl-1H-indol-2-yl)hepta-1,6-diene-3,5-dione], the melting point is reported as 167 to 170 °C. `Nc1ccc(O)cc1/C=C/C(=O)CC(=O)/C=C/c1ccc(O)cc1` [CU488, (1E,6E)-1-(2-amino-5-hydroxyphenyl)-7-(4-hydroxyphenyl)hepta-1,6-diene-3,5-dione] gave a melting point of 186 to 192 °C. Compound `CSc1ccc(/C=C/C(=O)CC(=O)/C=C/c2ccc(O)cc2)cc1` [CU235, (1E,6E)-1-(4-hydroxyphenyl)-7-(4-methylthiophenyl)hepta-1,6-diene-3,5-dione] has a melting point of 169 to 171 °C. With `CCN(CC)c1ccc(/C=C/C(=O)CC(=O)/C=C/c2ccc(O)cc2)c(OCc2ccc(Cl)cc2Cl)c1` [CU451, (1E,6E)-1-[2-(2,4-dichlorobenzyloxy)-4-diethylaminophenyl]-7-(4-hydroxyphenyl)hepta-1,6-diene-3,5-dione] the melting point was 73 to 80 °C. `COc1ccc([N+](=O)[O-])c(/C=C/C(=O)CC(=O)/C=C/c2ccc(O)cc2)c1` [CU481, (1E,6E)-1-(4-hydroxyphenyl)-7-(5-methoxy-2-nitrophenyl)hepta-1,6-diene-3,5-dione] gave a melting point of 151 to 155 °C. For `O=C(/C=C/c1ccc(O)cc1)CC(=O)/C=C/c1cc(O)ccc1O` [CU090, (1E,6E)-1-(2,5-dihydroxyphenyl)-7-(4-hydroxyphenyl)hepta-1,6-diene-3,5-dione], the melting point was 133 to 140 °C. For `Cc1ccc(Oc2ccc(/C=C/C(=O)CC(=O)/C=C/c3ccc(Oc4ccc(C)cc4)nc3)cn2)cc1` [CU378, (1E,6E)-1,7-bis[6-(4-methylphenoxy)pyridin-3-yl]hepta-1,6-diene-3,5-dione], the melting point was 185 to 190 °C. Compound `O=C(/C=C/c1ccc(O)cc1)CC(=O)/C=C/c1cc2ccccc2o1` [CU321, (1E,6E)-1-(benzofuran-2-yl)-7-(4-hydroxyphenyl)hepta-1,6-diene-3,5-dione] has a melting point of 173 to 178 °C. For `Cn1c(/C=C/C(=O)CC(=O)/C=C/c2cc3ccccc3n2C)cc2ccccc21` [CU409, (1E,6E)-1,7-bis(1-methyl-1H-indol-2-yl)hepta-1,6-diene-3,5-dione], the melting point was 189 to 196 °C. For `COc1ccc(/C=C/C(=O)CC(=O)/C=C/c2cccc(O)c2O)cc1O` [CU265, (1E,6E)-1-(2,3-dihydroxyphenyl)-7-(3-hydroxy-4-methoxyphenyl)hepta-1,6-diene-3,5-dione], the melting point was 170 to 172 °C. In the case of `O=C(/C=C/c1ccc(O)cc1)CC(=O)/C=C/c1cc(F)cc(F)c1` [CU468, (1E,6E)-1-(3,5-difluorophenyl)-7-(4-hydroxyphenyl)hepta-1,6-diene-3,5-dione], the melting point is reported as 153 to 156 °C. With `COc1ccc(/C=C/C(=O)CC(=O)/C=C/c2cc(O)ccc2OC)cc1O` [CU179, (1E,6E)-1-(3-hydroxy-4-methoxyphenyl)-7-(5-hydroxy-2-methoxyphenyl)hepta-1,6-diene-3,5-dione] the melting point was 116 to 120 °C. With `O=C(/C=C/c1cc(O)ccc1-c1cccc2ccccc12)CC(=O)CCc1ccc(O)cc1` [CU542, (E)-1-[5-hydroxy-2-(naphthalen-1-yl)phenyl]-7-(4-hydroxyphenyl)hept-1-ene-3,5-dione] the melting point was 138 to 142 °C. `COc1cc(/C=C/C(=O)CC(=O)/C=C/c2ccc(O)c(OC)c2)cc(OC)c1` [CU100, (1E,6E)-1-(3,5-dimethoxyphenyl)-7-(4-hydroxy-3-methoxyphenyl)hepta-1,6-diene-3,5-dione] gave a melting point of 50 to 55 °C. Work on `CCN(CC)c1ccc(/C=C/C(=O)CC(=O)/C=C/c2ccc(O)cc2)c(OCc2cccnc2)c1` [CU449, (1E,6E)-1-[4-diethylamino-2-(pyridin-3-ylmethoxy)phenyl]-7-(4-hydroxyphenyl)hepta-1,6-diene-3,5-dione] yielded a melting point of 180 to 186 °C. With `O=C(/C=C/c1ccc(O)cc1)CC(=O)/C=C/c1cccc(O)c1O` [CU264, (1E,6E)-1-(2,3-dihydroxyphenyl)-7-(4-hydroxyphenyl)hepta-1,6-diene-3,5-dione] the melting point was 173 to 176 °C. Work on `O=C(/C=C/c1ccc(O)cc1)CC(=O)/C=C/c1ccccc1-c1ccc2ccccc2c1` [CU529, (1E,6E)-1-(4-hydroxyphenyl)-7-[2-(naphthalen-2-yl)phenyl]hepta-1,6-diene-3,5-dione] yielded a melting point of 105 to 114 °C. With `COC(=O)c1ccc(/C=C/C(=O)CC(=O)/C=C/c2ccc(O)c(OC)c2)cc1` [CU316, (1E,6E)-1-(4-hydroxy-3-methoxyphenyl)-7-[4-(methoxycarbonyl)phenyl]hepta-1,6-diene-3,5-dione] the melting point was 149 to 152 °C. For `O=C(/C=C/c1ccc(O)cc1)CC(=O)/C=C/c1coc2ccccc2c1=O` [CU407, (1E,6E)-1-(chromon-3-yl)-7-(4-hydroxyphenyl)hepta-1,6-diene-3,5-dione], the melting point was 227 to 231 °C. For `COc1cc(/C=C/C(=O)CC(=O)/C=C/c2cc(O)cc(O)c2)ccc1O` [CU093, (1E,6E)-1-(3,5-dihydroxyphenyl)-7-(4-hydroxy-3-methoxyphenyl)hepta-1,6-diene-3,5-dione], the melting point was 85 to 90 °C. `COc1ccc(/C=C/C(=O)CC(=O)/C=C/c2ccc(OC)c(O)c2)c(O)c1` [CU282, (1E,6E)-1-(2-hydroxy-4-methoxyphenyl)-7-(3-hydroxy-4-methoxyphenyl)hepta-1,6-diene-3,5-dione] gave a melting point of 147 to 152 °C. For `COc1cc(/C=C/C(=O)CC(=O)/C=C/c2ccc(O)cc2)cc(OC)c1` [CU099, (1E,6E)-1-(3,5-dimethoxyphenyl)-7-(4-hydroxyphenyl)hepta-1,6-diene-3,5-dione], the melting point was 75 to 80 °C. Work on `COc1ccc(/C=C/C(=O)CC(=O)/C=C/c2cc(Cl)cc(Cl)c2O)cc1O` [CU276, (1E,6E)-1-(3,5-dichloro-2-hydroxyphenyl)-7-(3-hydroxy-4-methoxyphenyl)hepta-1,6-diene-3,5-dione] yielded a melting point of 212 to 214 °C. Work on `COc1cc(/C=C/C(=O)CC(=O)/C=C/c2cc(O)ccc2OC)ccc1O` [CU178, (1E,6E)-1-(4-hydroxy-3-methoxyphenyl)-7-(5-hydroxy-2-methoxyphenyl)hepta-1,6-diene-3,5-dione] yielded a melting point of 75 to 80 °C. For `COc1ccc(OC)c(/C=C/C(=O)CC(=O)/C=C/c2ccc(OC)c(O)c2)c1` [CU077, (1E,6E)-1-(2,5-dimethoxyphenyl)-7-(3-hydroxy-4-methoxyphenyl)hepta-1,6-diene-3,5-dione], the melting point was 63 to 68 °C. Compound `COc1ccc(/C=C/C(=O)CC(=O)/C=C/c2ccc([N+](=O)[O-])c(OC)c2)cc1O` [CU049, (1E,6E)-1-(3-hydroxy-4-methoxyphenyl)-7-(3-methoxy-4-nitrophenyl)hepta-1,6-diene-3,5-dione] has a melting point of 196 to 199 °C.
